Reference: article PMC3001719, “The heme sensing response regulator HssR in Staphylococcus aureus but not the homologous RR23 in Listeria monocytogenes modulates susceptibility to the antimicrobial peptide plectasin” (BMC Microbiology, 2010)

Key:
[1] = tested on: S. aureus 8325-4 hssR::bursa/pRMC2-hssRS (complementation of hssR transposon mutant); assay: MIC, microbroth dilution; format: cell-based, Staphylococcus aureus; details: 8325-4 hssR::bursa/pRMC2-hssRS compared to 8325-4 hssR::bursa, MIC
Description: Protamine was purchased from Sigma (P4020-5G). Plectasin, eurocin, novicidin, and novispirin G10 were supplied by Department of Antiinfective Discovery, Novozymes A/S. The host defence peptides were dissolved in 0.01% acetic acid/0.1% bovine serum albumin (Sigma, A7906).
Minimal inhibitory concentrations (MIC) of plectasin, eurocin, protamine, novicidin, and novispirin G10 were determined using a microbroth dilution method. Colonies from a BHI plate incubated overnight at 37 °C were suspended in MHB pH 7.4 to an absorbance at 546 nm of 0.11-0.12 at 546 nm (approx. 1.0 × 10^8 CFU/ml) and diluted in MHB to a concentration of 5.0 × 10^5 CFU/ml. Ninety μl of bacterial suspension was incubated with 10 μl of peptide solution in polypropylene 96-well plates (Nunc, 442587) for 18-24 h at 37°C. The peptide solutions were made fresh on the day of assay. The range of concentrations assayed were 0.25-256 μg/ml for plectasin and eurocin, 0.125-128 μg/ml for protamine and novispirin G10, and 0.031-32 μg/ml for novicidin. MIC was the lowest peptide concentration at which visual growth was inhibited.

[2] = tested on: S. aureus; assay: ATP leakage (intracellular and extracellular ATP, bioluminescence); format: cell-based, Staphylococcus aureus; details: S. aureus, 500 μg/ml peptide, 50 mM HEPES pH 7.0 with 0.2% glucose, vs peptide dilution buffer; two independent experiments
Description: L. monocytogenes and S. aureus were grown in TSB at 37°C. Bacteria were harvested (10 min at 3000 RPM) at mid-exponential phase (absorbance at 546 nm of 2.5 ± 0.2 and 1.0 ± 0.2 for S. aureus and L. monocytogenes, respectively), washed once in 50 mM potassium phosphate buffer pH 7.0 and once in 50 mM HEPES buffer pH 7.0. The pellet was resuspended in 50 mM HEPES pH 7.0 to a final absorbance at 546 nm of 10. Bacteria were stored on ice and used within 5 hours. […] ATP was determined using a bioluminescence kit (Sigma, FLAA-1KT) and a BioOrbit 1253 luminometer. Total ATP content was determined by rapidly permeabilising 20 μl cell suspension with 80 μl dimethyl sulfoxide. The cell suspension was diluted in 4.9 ml sterile water, and ATP content was determined in 100 μl of the preparation as described by the manufacturer. To determine the extracellular ATP concentration, the 20 μl cell suspension was mixed with 80 μl sterile water and analyzed as described above. Intracellular ATP concentrations were calculated by using the intracellular volumes of 0.85 and 1.7 μm^3 for S. aureus and L. monocytogenes, respectively. The number of cells in suspension was determined by plate spreading.

[3] = tested on: S. aureus 15981 ΔTCS15 (hssRS) mutant; assay: Growth in TSB with plectasin; format: cell-based, Staphylococcus aureus; details: plectasin 35 μg/ml, 37°C, absorbance at 600 nm
Description: (§1) Overnight cultures of S. aureus were diluted to an absorbance at 600 nm of 0.05 in TSB with and without 4 μM hemin and/or 35 μg/ml plectasin and grown at 37°C. Measurements of the absorbance were made every 30 minutes.

[4] = tested on: S. aureus 8325-4 hssR::bursa transposon mutant; assay: Growth in TSB with plectasin; format: cell-based, Staphylococcus aureus; details: plectasin 35 μg/ml, 37°C, absorbance at 600 nm
Description: as §1

[5] = tested on: S. aureus 8325-4 hssR::bursa; assay: In vitro bacterial killing kinetics; format: cell-based, Staphylococcus aureus; details: plectasin 1× MIC, TSB, 37°C, CFU after 1, 3 and 5 hours; 8325-4 hssR::bursa mutant
Description: (§2) Overnight cultures of S. aureus wild type […], 8325-4 hssR::bursa and 8325-4 hssR::bursa/pRMC2-hssRS were diluted 1000 fold in TSB and grown 2 hours at 37°C. Samples were taken to time T = 0 and plated for CFU determination. Plectasin (1× MIC) was added, and samples were withdrawn after 1,3 and 5 hours growth at 37°C and plated for CFU determination.

[6] = tested on: S. aureus 8325-4 wild type; assay: In vitro bacterial killing kinetics; format: cell-based, Staphylococcus aureus; details: plectasin 1× MIC, TSB, 37°C, CFU after 1, 3 and 5 hours
Description: as §2

[7] = tested on: L. monocytogenes; assay: Extracellular protein profile by SDS-PAGE; format: cell-based, Listeria monocytogenes; details: L. monocytogenes grown with or without plectasin overnight at 37°C in BHI; data not shown
Description: Prewarmed TSB and BHI (25 ml) in a 250 ml Erlenmeyer flask was inoculated with S. aureus strains and L. monocytogenes strains, respectively. These flasks were grown with and without plectasin at 37°C overnight (≈ 17 h) with shaking. The next morning, the exact absorbance at 600 nm of the cultures was measured, and 15 ml of culture was centrifuged to precipitate the cells (6 000 RPM; 7 min; 0°C). The supernatant was transferred to a 50 ml Blue cap bottle (placed in an ice/water bath), and the extracellular proteins were precipitated by adding one volume of ice-cold 96% EtOH and left in the refrigerator overnight for proteins to precipitate. Precipitated proteins were collected by centrifugation (11,000 RPM; 30 min; 0°C). Protein pellets were suspended in a volume of 50 mM Tris-HCl (pH 6.8) adjusted to the original absorbance of the overnight culture so that 15 ml of overnight culture with absorbance at 600 nm of 5.0 was suspended in 0.8 ml of 50 mM Tris-HCl (pH 6.8). A sample of 15 μl of the protein extracts was analysed on NuPAGE® 4-12% Bis-Tris gels (Invitrogen) using the X Cell SureLock® Mini-Cell system (Invitrogen) as recommended by the supplier. The gels were Coomassie stained using GelCode® Blue Stain Reagent (Pierce).

[8] = tested on: S. aureus wild type; assay: Spontaneous mutation control on plectasin plates; format: cell-based, Staphylococcus aureus; details: S. aureus wild type grown on TSB with 4, 5 or 10 fold MIC of plectasin
Description: The transposon mutant libraries were screened on agar plates for increased resistance to plectasin as compared to wild-type sensitivity. Wild-type sensitivity was determined by plating approx. 1.0 × 10^7 CFU/ml on TSB agar containing plectasin (S. aureus) and approx. 1.0 × 10^5 CFU/ml on Muller Hinton Broth agar plates (MHB, 212322 Becton Dickinson) with plectasin (L. monocytogenes). Plates were incubated at 37°C for 3 days and inspected for growth. The transposon libraries were screened on TSB agar with 300 μg/ml, 500 or 750 μg/ml plectasin (S. aureus) or MHB plates with 250 μg/ml or 500 μg/ml plectasin (L. monocytogenes) at 37°C for up to 7 days.

[9] = tested on: mice, human keratinocytes and erythrocytes; details: in mice and on human keratinocytes and erythrocytes; cited from earlier work
Text: Recently, the antimicrobial peptide, plectasin isolated from a saprophytic fungus, was described.

Compound: CC[C@H](C)[C@@H]1NC(=O)[C@H](CO)NC(=O)[C@H](CCCCN)NC(=O)[C@@H]2CSSC[C@@H](C(=O)N[C@@H](Cc3ccc(O)cc3)C(=O)O)NC(=O)[C@H](CCCCN)NC(=O)[C@@H]3CSSC[C@H](NC(=O)[C@H](CCC(N)=O)NC(=O)[C@H](CCSC)NC(=O)[C@H](CC(=O)O)NC(=O)[C@H](CC(=O)O)NC(=O)[C@H](CCC(=O)O)NC(=O)[C@H](CC(=O)O)NC(=O)[C@H](Cc4c[nH]c5ccccc45)NC(=O)[C@@H]4CCCN4C(=O)CNC(=O)[C@H](CC(N)=O)NC(=O)[C@@H](NC(=O)CNC(=O)[C@H](Cc4ccccc4)NC(=O)CN)CSSC[C@H](NC(=O)[C@H](Cc4ccc(O)cc4)NC(=O)CNC(=O)CNC(=O)[C@H](CCCCN)NC(=O)[C@H](Cc4ccc(O)cc4)NC(=O)CNC(=O)[C@H](CCCCN)NC1=O)C(=O)N[C@@H](C)C(=O)N[C@@H](CCCCN)C(=O)NCC(=O)NCC(=O)N[C@@H](Cc1ccccc1)C(=O)N[C@@H](C(C)C)C(=O)N3)C(=O)N[C@@H](Cc1c[nH]cn1)C(=O)N[C@@H](CC(N)=O)C(=O)N[C@@H](Cc1c[nH]cn1)C(=O)N2 [plectasin]
- Decrease of resistance by complementation [1]: 2 fold
- ATP leakage (intracellular ATP concentration) [2]: remained at the same level as the controls
- Growth in the presence of plectasin [3]: hardly affected the growth
- Growth in the presence of plectasin [4]: hardly affected the growth
- Kinetics of bacterial killing in vitro [5]: killed slower than the wild type
- Kinetics of bacterial killing in vitro [6]: killed rapidly
- Abundance of extracellular proteins [7]: no difference in the abundance of extracellular proteins
- Spontaneous mutations leading to changes in sensitivity [8]: no spontaneous mutations
- Toxicity [9]: very low toxicity
